Patent US9232792B2, “Method for promoting plant growth” (SUMITOMO CHEMICAL COMPANY, LIMITED, priority 2011, dated 2016)

Experiments:
[1] = system: Tobacco (Nicotiana benthamiana); assay: Test Example 4: reduction of low-temperature stress in hydroponics of tobacco; format: in vivo; details: 10 ppm in medium; 1.5±1.0° C. for 7 days, then 3 days at 22° C.
Protocol: Tobacco (Nicotiana benthamiana)
DMSO solutions containing each of the present compounds 1 to 4 at a concentration of 10,000 ppm were prepared. A 1/1,000 volume of each DMSO solution was added to a Murashige-and-Skoog medium (a medium containing 2.3 g of a mixture of salts for Murashige-and-Skoog medium (manufactured by Wako. Pure Chemical Industries, Ltd.), 200 mg of myoinositol (manufactured by Sigma-Aldrich), 2 mg of nicotinic acid (manufactured by Wako Pure Chemical Industries, Ltd.), 2 mg of pyridoxine hydrochloride (manufactured by Wako Pure Chemical Industries, Ltd.), 20 mg of thiamine hydrochloride (manufactured by Wako Pure Chemical Industries, Ltd.), 20 g of sucrose (manufactured by Wako Pure Chemical Industries, Ltd.), 1 g of MES (manufactured by DOJINDO LABORATORIES) in 1 L of water, adjusted to pH 5.8) at ½ concentration to obtain a medium containing the test compound at a concentration of 10 ppm. These media were used in the treated-group.
In a non-treated group, a medium obtained by adding a 1/1,000 volume of DMSO to a Murashige-and-Skoog medium at ½ concentration was used.
The seeds of tobacco (Nicotiana benthamiana) were sown on 5 μL of the medium, and incubated at 22° C. overnight. Thereto was added 45 μL of a medium containing each present compound at a concentration of 10 ppm, and cultivated for 7 days under the conditions of an illuminance of 4,000 lux, a temperature of 22° C. and a day length of 16 hours, thereby treating the seedlings of tobacco (Nicotiana benthamiana) with the test compound.
In the non-treated group, 45 μL of a medium obtained by adding a 1/1,000 volume of DMSO to a Murashige-and-Skoog medium at ½ concentration was added, and treated in the same manner as above.
The seedlings of tobacco (Nicotiana benthamiana) treated with the present compounds were cultivated for 7 days under the conditions of an illuminance of 2,000 lux, a temperature of 1.5±1.0° C., and a day length of 16 hours, thereby subjecting to low-temperature stress treatment.
The plants of tobacco (Nicotiana benthamiana) subjected to low-temperature stress treatment was cultivated for 3 days under the conditions of an illuminance of 4,000 lux, a temperature of 22° C., and a day length of 16 hours, and then the green leaf area of the plants was visually evaluated. Completely dead plant was scored as 0, the plant without low-temperature stress treatment was scored as 5, the green area was rated on a 6-point scale in ⅕ increments, and the score of not less than 1 was regarded as effective in reducing the stress. As a result of visual evaluation, the green leaf area of plants in the treated group, wherein the plants were treated with the present compound 1, 2, 3 or 4 was much larger than that in the non-treated group.

[2] = system: Rice (cultivar: Nipponbare); assay: Test Example 7: reduction of drought stress by treatment of rice seeds; format: in vivo; details: drought 2 days, then 14 days hydroponics
Protocol: Rice (cultivar: Nipponbare) A blank slurry solution containing 5% (V/V) color coat red (Becker Underwood, Inc.), 5% (V/V) CF-Clear (Becker Underwood, Inc.) and 1% Maxim XL (Syngenta) was prepared. A slurry solution was prepared by dissolving the present compound 1 in the blank slurry solution such that 50 g or 100 g of the compound is applied to each 100 kg of rice seeds. In a 50-ml centrifuge tube (manufactured by AGC TECHNO GLASS CO., LTD.), 0.3 ml of the slurry solution was placed for each 10 g of rice seeds and stirred until the solution was dried, thereby coating the seeds. In addition, seeds were coated with the blank slurry solution and used as seeds for a non-treated group. A filter paper was placed on the holes of a plug tray having 406 holes, and the rice seeds treated above were sown on the filter paper. […] Fourteen (14) days after the treatment, the fresh weight of the overground parts of five test plants in each treated group was measured. The experiment was performed in three replications in each treated group and the average value was calculated. […]

O=C(O)c1cc2cc(C(F)(F)F)ccc2s1 [The present compound 1, 5-(trifluoromethyl)benzo[b]thiophene-2-carboxylic acid]
green leaf area of plants (visual evaluation) vs non-treated group [1]: much larger
fresh weight of the overground part of plants vs non-treated group ([2]; seed treatment 50 g per 100 kg of seeds): much heavier
fresh weight of the overground part of plants vs non-treated group ([2]; seed treatment 100 g per 100 kg of seeds): much heavier
